Source: patent publication US20090298752A1, “APLIDINE TREATMENT OF CANCERS” (PHARMA MAR, S.A., priority 1999, published 2009)
“Also recorded” adds a separate entry of the source.

How the values were obtained:
[1] = stability testing of aplidine and lyophilised dosage form; format: physicochemical; conditions: solubilised; heat and light stress testing
Method: In a currently preferred embodiment freeze-drying was performed from a 500 mg/mL solution of aplidine in 40% (v/v) tert-butanol in Water for Injection (WfI) containing 25 mg/mL D-mannitol as bulking agent.

[2] = test system: primary gastric tumour specimens; assay: in vitro activity on primary gastric tumour specimens; format: cell-based, human
Method: (§1) Different model systems were evaluated to provide the basis for further clinical work. Selective antitumour activities were seen against two histologically different solid tumours: human gastric and prostate carcinomas. Potent in vitro activity to primary gastric tumour specimens or Hs746T gastric tumour cells is evident with IC30 values of 146 and 450 pM, respectively. […] activities were evaluated in nude rodents using sc implanted tumour fragments or hollow fibres (HF) containing tumour cells.

Gastric MRI-H254 = assay: sc hollow fibre (HF), gastric tumour cells, rat; format: in vivo; conditions: 24 hr.iv inf., 0.7 mg/kg
Method: as §1
Follow-up studies necessitated using rats for iv infusions. With this variation, a 24 hr iv infusion schedule produced similar activities against HF gastric (20%) and HF prostate (31%) tumour cells. Cytotoxicity was also found using a 5 day iv infusion schedule against HF prostate tumour cells (33%).

B-RAF = assay: cDNA expression array in MOLT-4 cells; format: cell-based, human; conditions: for quantitative change in B-RAF expression: MOLT-4, 1 h treatment
Method: (§2) The early changes in gene expression induced by aplidine in MOLT-4 cells were evaluated by using cDNA expression arrays (Atlas Human Cancer, Clontech). MOLT-4 cells were treated for 1 hour with concentrations of aplidine which inhibit the growth by 50% and total RNA was isolated at 0, 1, 6 and 24 hours after drug wash out. Filters were hybridised with equal amount of 32P labelled cDNA. Analysis of the results was carried out using ATLAS IMAGE 1.0 software. Changes in gene expression greater than 2 fold were taken as significant changes in RNA expression and subsequently confirmed by PCR.
as §2, with “In the present study we have evaluated the early” for “The early”, “cells” for “cells were evaluated”, “of aplidien” for “of aplidine”, “isolated t” for “isolated at”, “equal amounts” for “equal amount”, “PCR. […] Whether the down-regulation of flt-1 is involved in the cytotoxic and antitumour effect of aplidine is under investigation at the moment.” for “PCR.”
(§3) The human leukaemia cell line MOLT-4 was used for these experiments MOLT-4 cells were treated for 1 hour with 20 nM of aplidine. Total RNA was extracted at the end of treatment and 6 and 24 hours after recovery in drug-free medium.
(§4) 5 μg of total RNA were retrotanscribed to cDNA in the presence of ^32P dATP. Equal amounts of radioactive probes were hybridised to Atlas Human Cancer Microarrays (Clontech). After washing, filter were exposed and the results analysed using the Atlas Image software. Only a gene expression difference greater than 2 fold between treated and untreated cells were taken into account. RT-PCR and northern analysis have been performed to confirm the changes in gene expression found with the microarrays.

DNA-PK = assay: cDNA expression array in MOLT-4 cells; format: cell-based, human; conditions: MOLT-4, 1 h treatment
Method: as §2
as §2, with “In the present study we have evaluated the early” for “The early”, “cells” for “cells were evaluated”, “of aplidien” for “of aplidine”, “isolated t” for “isolated at”, “equal amounts” for “equal amount”, “PCR. […] Whether the down-regulation of flt-1 is involved in the cytotoxic and antitumour effect of aplidine is under investigation at the moment.” for “PCR.”
as §3, §4

ETR = assay: cDNA expression array in MOLT-4 cells; format: cell-based, human
Method: as §2
as §2, with “In the present study we have evaluated the early” for “The early”, “cells” for “cells were evaluated”, “of aplidien” for “of aplidine”, “isolated t” for “isolated at”, “equal amounts” for “equal amount”, “PCR. […] Whether the down-regulation of flt-1 is involved in the cytotoxic and antitumour effect of aplidine is under investigation at the moment.” for “PCR.”
as §3, §4

FMS = assay: cDNA expression array in MOLT-4 cells; format: cell-based, human; conditions: for quantitative change in FMS expression: MOLT-4, 1 h treatment
Method: as §2
as §2, with “In the present study we have evaluated the early” for “The early”, “cells” for “cells were evaluated”, “of aplidien” for “of aplidine”, “isolated t” for “isolated at”, “equal amounts” for “equal amount”, “PCR. […] Whether the down-regulation of flt-1 is involved in the cytotoxic and antitumour effect of aplidine is under investigation at the moment.” for “PCR.”
as §3, §4

PLK-1 = assay: cDNA expression array in MOLT-4 cells; format: cell-based, human; conditions: MOLT-4, 1 h treatment
Method: as §2
as §2, with “In the present study we have evaluated the early” for “The early”, “cells” for “cells were evaluated”, “of aplidien” for “of aplidine”, “isolated t” for “isolated at”, “equal amounts” for “equal amount”, “PCR. […] Whether the down-regulation of flt-1 is involved in the cytotoxic and antitumour effect of aplidine is under investigation at the moment.” for “PCR.”
as §3, §4

VEGF = VEGF secretion from MOLT-4 cells (ELISA); format: cell-based, human
Method: Cells were treated for 1 h with 20 nM aplidine. VEGF secreted in the medium was measured by ELISA at the end of treatment and after 6 and 24 hours incubation in drug-free medium.

VEGF promoter = VEGF promoter activity, luciferase/renilla reporter gene system; format: cell-based; conditions: FIG. 13
cardiac H9 c2 (2-1) = assay: CellTiter96 (MTS) in vitro cytotoxicity assay; format: cell-based
Description: (§5) In fact, the dose limiting toxicity in humans is skeletal muscle atrophy.

kidney (NRK-52E) cells = assay: CellTiter96 (MTS) in vitro cytotoxicity assay; format: cell-based
Description: as §5

liver (AML-12) = assay: CellTiter96 (MTS) in vitro cytotoxicity assay; format: cell-based
Description: as §5

[3] = test system: myelogenous stem cells (FDC-P1); assay: CellTiter96 (MTS) in vitro cytotoxicity assay; format: cell-based
Description: as §5

skeletal muscle (L8) = assay: CellTiter96 (MTS) in vitro cytotoxicity assay; format: cell-based
Description: as §5

[4] = test system: solid tumours and Non-Hodgkin's Lymphomas; assay: Phase I, 1 h daily infusion x5 q3wk: antitumour activity; format: in vivo, human
Method: The objectives are to determine the Maximum Tolerated Dose, the Dose Limiting Toxicity (DLT), the pharmacokinetics (PK) and the recommended dose for phase 2 studies that can be given in a daily 1 hour IV infusion×5 days q 3 weeks. Patients with solid tumours and low and intermediate grade Non-Hodgkin's Lymphomas were eligible. The daily starting dose of aplidine was 80 μg/m^2. Cohorts of 3 patients (pts) are treated at each level with dose escalation according to toxicity, 20 patients were treated with 6 dose levels ranging from 80 μg-720 μg/m^2, 1 patient is presently at the dose of 960 μg/m^2. At total of 48 cycles were administered. Non-haematological toxicities were grade 1 and 2 with fatigue reported in most pts. Grade 1 hypersensitivity reactions were documented in 7 patients. Other toxicities included nausea, anorexia, diarrhoea, and anxiety. […] PK analysis was performed in treatment course 1. Aplidine concentrations were analysed by LC tandem mass spectrography. […] Potentially therapeutic plasma concentrations ([…]) were achieved. […] Accrual is ongoing at 960 μg/m^2.

[5] = test system: CT-1, CT-2 and HT-29 cell lines; conditions: cited from earlier work
B 16 melanoma = conditions: mice; cited from earlier work
gastric tumours = conditions: 1.25 mg/kg; cited from earlier work
[6] = MOLT-4, 6 hours after recovery in drug-free medium

For aplidine, the degradation [1] was “substantial degradation”, the IC30 [2] was 146 pM and the “Activity (% T/C.)” value (Gastric MRI-H254) was 20 % T/C. The “quantitative change in B-RAF expression” value (B-RAF; 6 Hours) was “+2.0 fold”, the “quantitative change in B-RAF expression” value (B-RAF; 24 Hours) was “+2.6 fold” and the “levels of B-RAF, in words” value (B-RAF; [6]) was “increase”. For the same substance, the “quantitative change in DNA-PK expression” value (DNA-PK; 6 Hours) was “+3.0 fold”, the “quantitative change in DNA-PK expression” value (DNA-PK; 24 Hours) was “+3.8 fold” and the “ETR levels, in words” value (ETR; MOLT-4, 20 nM 1 h, after 6 and 24 hours) was “returned to normal level”. For the same substance, the “expression of early response gene ETR, in words” value (ETR; MOLT-4, 20 nM 1 h, at the end of treatment) was “increased”, the “quantitative change in ETR expression” value (ETR; MOLT-4, 1 h treatment, 1 Hour) was “+2.7 fold” and the “quantitative change in FMS expression” value (FMS; 6 Hours) was “+2.7 fold”. The “quantitative change in FMS expression” value (FMS; 24 Hours) was “+2.1 fold”, the “levels of Fms, in words” value (FMS; [6]) was “increase” and the “quantitative change in PLK-1 expression” value (PLK-1; 6 Hours) was “+3.0 fold”. For the same substance, the “quantitative change in PLK-1 expression” value (PLK-1; 24 Hours) was “+4.4 fold”, the “intracellular VEGF” value (VEGF) was “increased intracellular accumulation of VEGF” and the “VEGF secretion, in words” value (VEGF; 1 h with 20 nM aplidine) was “strong reduction of VEGF secretion; also recorded: severely inhibit production; also recorded: Blocks VEGF Secretion”. For the same substance, the “concentration at which block of VEGF secretion is already observable” value (VEGF; concentration-dependent) was 5 nm, the “promoter activity of VEGF, in words” value (VEGF promoter) was “does not affect the promoter activity of VEGF” and the LD50 (cardiac H9 c2 (2-1)) was 1 µM. The LD50 (kidney (NRK-52E) cells) was 0.1 nM, the LD50 (liver (AML-12)) was 1 µM and the LD50 [3] was 0.1 µM. The LD50 (skeletal muscle (L8)) was 0.1 nM, the “duration of stable disease, colon cancer” value ([4]; 1 patient) was 9 months and the “response, renal cell cancer” value ([4]; 1 patient) was “mixed response”. For the same substance, the objective responses ([4]; in vivo) was “No objective responses”, the “reduction in the size of the tumor, heavily pre-treated CRC” value ([4]; one patient) was 40% and the “reduction in sum of tumour measurements, renal cell cancer and liver mets” value ([4]; one patient, mixed responses) was 10%. The “duration of stable disease, heavily pre-treated CRC” value ([4]; one patient, total 13 cycles) was no less than 6 months, the cytotoxic activity [5] was “dose-dependent cytotoxic activity” and the “activity against implanted tumour” value (B 16 melanoma) was “active”. For the same substance, the T/C (gastric tumours) was 14%.
